{"source": "paper PMC7525093", "about": "“Bis-Quinolinium Cyclophane Blockers of SK Potassium Channels Are Antagonists of M3 Muscarinic Acetylcholine Receptors” (Frontiers in Pharmacology, 2020)", "key": {"[1]": {"tested_on": "human primary bronchial smooth muscle cells stably transfected with the human M3 muscarinic receptor", "assay": "Cytosolic calcium imaging in human bronchial smooth muscle cells", "assay_type": "cell-based", "experimental": "TSM cells were placed on a coverslip in a 1 ml perfusion chamber on an inverted microscope and incubated with 20 μM Cal-520 AM dye (AAT Bioquest, Sunnyvale, California, USA) in 0.2% Pluronic F-127 and 1 mM probenecid in HBSS at room temperature for 30 min. The chamber was fitted with a top adaptor and coverslip (Warner Instruments, RC37WC) to establish a closed perfusion chamber. The cells were imaged at 20 second intervals using 488 nm excitation on a Nikon swept-field confocal microscope using slit-scan mode, 2×2 Binning, and 100 millisecond frames.\nDue to the loss of functional muscarinic receptors in primary bronchial smooth muscle cells in culture, calcium imaging was performed in human primary bronchial smooth muscle cells (ScienCell, passage 3) stably transfected with the human M3 muscarinic receptor. Human M3 receptor transfected clones were stably selected with G418, and individual clones were expanded to a 10 cm dish and frozen into aliquots, and analyzed after a maximum of two additional passages."}, "[2]": {"target": "SK3", "design": "method as in Benton D.C. et al., 2013", "details": "125I-Apamin competition; ref Benton D.C. et al., 2013; read-out: Ki, SK3 channels; cited from earlier work"}, "[3]": {"target": "T1, M1 muscarinic receptor (Homo sapiens, UniProt P11229)", "T1 construct": "expressed in transfected cells; host or cells: CHO cells, transiently co-transfected with pCMV R-CEPIAer", "T1 sequence (P11229 1-460)": "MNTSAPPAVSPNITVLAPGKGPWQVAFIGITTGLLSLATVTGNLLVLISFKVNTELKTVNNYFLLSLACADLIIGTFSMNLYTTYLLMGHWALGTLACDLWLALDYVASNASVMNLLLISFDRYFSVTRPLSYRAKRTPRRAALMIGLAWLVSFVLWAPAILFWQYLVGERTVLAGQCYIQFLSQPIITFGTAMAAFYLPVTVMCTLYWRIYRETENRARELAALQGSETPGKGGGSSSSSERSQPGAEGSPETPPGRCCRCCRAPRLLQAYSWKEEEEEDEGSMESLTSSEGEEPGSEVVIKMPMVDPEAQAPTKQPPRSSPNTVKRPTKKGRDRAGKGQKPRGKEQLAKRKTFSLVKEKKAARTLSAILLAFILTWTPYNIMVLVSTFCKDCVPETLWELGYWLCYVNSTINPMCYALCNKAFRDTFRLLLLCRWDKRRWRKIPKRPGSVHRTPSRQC", "assay": "R-CEPIAer ER calcium assay, CHO cells transiently transfected with M1 receptor", "assay_type": "cell-based", "experimental": "[Worded in the source for another target; used here, by the source, with some conditions changed.] The binding of antagonists to Gq-coupled receptors was determined by measuring IP3-mediated calcium depletion from the endoplasmic reticulum (ER). This was accomplished using CHO-K1 cells stably transfected with human M3 muscarinic acetylcholine receptor (CEM3000000, cDNA Resource Center, Bloomsburg University) and R-CEPIAer, a low affinity ER-targeted calcium indicator fluorescent protein ([Suzuki et al., 2014]). R-CEPIAer reporting of ER calcium concentration was assessed using 564 nm excitation light (>590 long-pass emission) at 20 second intervals on a Nikon swept-field confocal microscope using slit-scan mode, 2x2 Binning, and 100 millisecond frames. F/Fmax was fluorescence intensity normalized to maximal fluorescence intensity during the experiment. The response of cells to Gq-coupled receptor agonist were measured as the change in F/Fmax (ΔF/Fmax) from preagonist value to fluorescence minimum during agonist application (that occurs by IP3-mediated ER calcium depletion). […] Perfusion of each agonist application was for 2 min, while the antagonist overlapped and preceded the second agonist application by 3 min. […] IC50 was calculated by assaying fractional inhibition using a dose-response of antagonist concentrations (i.e. Figure 1D ). […]"}, "[4]": {"target": "T2, human M3 muscarinic acetylcholine receptor (Homo sapiens, UniProt P20309)", "T2 construct": "host or cells: CHO-K1 cells, stably transfected", "T2 sequence (P20309 whole entry)": "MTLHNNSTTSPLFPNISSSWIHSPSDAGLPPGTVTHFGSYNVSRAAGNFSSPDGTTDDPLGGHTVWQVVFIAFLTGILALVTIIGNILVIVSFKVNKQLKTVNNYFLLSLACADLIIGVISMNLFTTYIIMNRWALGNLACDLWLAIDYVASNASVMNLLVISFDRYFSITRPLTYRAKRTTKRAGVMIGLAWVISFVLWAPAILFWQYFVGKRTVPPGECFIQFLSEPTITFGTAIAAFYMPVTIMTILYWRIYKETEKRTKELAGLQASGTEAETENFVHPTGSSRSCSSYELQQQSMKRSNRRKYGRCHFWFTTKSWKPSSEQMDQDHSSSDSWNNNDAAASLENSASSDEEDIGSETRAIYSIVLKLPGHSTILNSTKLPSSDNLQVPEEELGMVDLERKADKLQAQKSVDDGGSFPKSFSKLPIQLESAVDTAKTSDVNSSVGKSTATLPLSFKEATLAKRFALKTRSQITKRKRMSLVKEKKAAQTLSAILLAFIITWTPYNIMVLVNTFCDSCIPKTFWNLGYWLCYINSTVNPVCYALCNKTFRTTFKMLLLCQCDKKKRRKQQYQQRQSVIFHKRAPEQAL", "assay": "R-CEPIAer ER calcium assay of Gq-coupled receptor activation, M3-transfected CHO-K1 cells", "assay_type": "cell-based", "experimental": "The binding of antagonists to Gq-coupled receptors was determined by measuring IP3-mediated calcium depletion from the endoplasmic reticulum (ER). This was accomplished using CHO-K1 cells stably transfected with human M3 muscarinic acetylcholine receptor (CEM3000000, cDNA Resource Center, Bloomsburg University) and R-CEPIAer, a low affinity ER-targeted calcium indicator fluorescent protein ([Suzuki et al., 2014]). R-CEPIAer reporting of ER calcium concentration was assessed using 564 nm excitation light (>590 long-pass emission) at 20 second intervals on a Nikon swept-field confocal microscope using slit-scan mode, 2x2 Binning, and 100 millisecond frames. F/Fmax was fluorescence intensity normalized to maximal fluorescence intensity during the experiment. The response of cells to Gq-coupled receptor agonist were measured as the change in F/Fmax (ΔF/Fmax) from preagonist value to fluorescence minimum during agonist application (that occurs by IP3-mediated ER calcium depletion). […] Perfusion of each agonist application was for 2 min, while the antagonist overlapped and preceded the second agonist application by 3 min. […] IC50 was calculated by assaying fractional inhibition using a dose-response of antagonist concentrations (i.e. Figure 1D ). For assays of other receptors such as the M1 and M5 muscarinic receptors, H1 histamine and P2Y1 purinergic receptors, these receptors were transiently co-transfected with the pCMV R-CEPIAer plasmid (a gift from Masamitsu Iino (Addgene plasmid # 58216; http://n2t.net/addgene:58216; RRID : Addgene_58216)) into CHO cells using polyethylenimine [according to previous methods ([Longo et al., 2013])]. IC50 and EC50 values were estimated by fitting the dose-response relationship to a Hill equation.\nTo obtain a pKB using a Schild analysis ([Arunlakshana and Schild, 1959]), the acetylcholine EC50 was measured in the absence of UCL1684 and EC50′ measured in the presence of increasing concentrations of UCL1684. These values were used to calculate a dose ratio (DR = EC50′/EC50) for each UCL1684 concentration. The log(DR − 1) was plotted vs. log UCL1684 concentrations and fit to a linear equation where the theoretical X-intercept was used to estimate a pKB."}}, "data": [{"compound": "c1cc2cc(c1)C[n+]1ccc(c3ccccc31)NCc1ccc(cc1)CNc1cc[n+](c3ccccc13)C2", "note": "[UCL 1684, 6,12,19,20,25,26-Hexahydro-5,27:13,18:21,24-trietheno-11,7-metheno-7H-dibenzo [b,n] [1,5,12,16]tetraazacyclotricosine-5,13-diium dibromide]", "values": [{"measurement": "Calcium response (integral) to second carbachol relative to first", "setting": "[1]; 3.5 μM UCL 1684, 0.5 μM carbachol, human BSMC", "result": "0.38 ± 0.10"}, {"measurement": "activity at 3.5 µM", "setting": "[1]; Homo sapiens, BSMC, read-out: CCH-evoked cytosolic calcium, % of control", "result": 38, "unit": "%"}, {"measurement": "Ki", "setting": "[2]", "result": 7.7, "unit": "nM"}, {"measurement": "IC50", "setting": "[3]", "result": 120, "unit": "nM"}, {"measurement": "Hill slope of inhibition curve, M1 receptor", "setting": "[3]; 0.5 μM carbachol", "result": "0.67 ± 0.5"}, {"measurement": "IC50", "setting": "[4]", "result": 1500, "unit": "nM"}, {"measurement": "Nature of antagonism at M3 receptors", "setting": "[4]", "result": "competitive antagonist"}, {"measurement": "Hill slope of inhibition curve, M3 receptor", "setting": "[4]; 0.5 μM carbachol, Hill equation fit", "result": "1.8 ± 0.29"}, {"measurement": "Fractional inhibition of second carbachol response", "setting": "[4]; 5 μM antagonist, 0.5 μM carbachol, 0 = none, 1 = complete inhibition", "result": 0.99}, {"measurement": "Schild plot slope", "setting": "[4]; linear regression of log(DR-1) vs log UCL1684", "result": 0.94}, {"measurement": "Kb", "setting": "[4]; read-out: Ki / KB from Schild analysis", "result": 155, "unit": "nM"}]}]}
